According to patent US9233983B2, “Substituted hetero-bicyclic compounds, compositions and medicinal applications thereof” (ADVINUS THERAPEUTICS LIMITED, priority 2012, dated 2016):

Each compound was assayed against human Bruton's Tyrosine Kinase (Btk) (Homo sapiens (Human), UniProt Q06187) (assay: Recombinant Human Bruton's Tyrosine Kinase (Btk) Inhibition Assay (HTRF KinEASE-TK)). Details: 20 ng/ml rhBtk, 77 μM ATP (KM), 1 μM TK-Biotin substrate, 90 min; read-out: hBTK IC50.
Format: biochemical

Chain of human Bruton's Tyrosine Kinase (Btk) (Q06187 whole entry): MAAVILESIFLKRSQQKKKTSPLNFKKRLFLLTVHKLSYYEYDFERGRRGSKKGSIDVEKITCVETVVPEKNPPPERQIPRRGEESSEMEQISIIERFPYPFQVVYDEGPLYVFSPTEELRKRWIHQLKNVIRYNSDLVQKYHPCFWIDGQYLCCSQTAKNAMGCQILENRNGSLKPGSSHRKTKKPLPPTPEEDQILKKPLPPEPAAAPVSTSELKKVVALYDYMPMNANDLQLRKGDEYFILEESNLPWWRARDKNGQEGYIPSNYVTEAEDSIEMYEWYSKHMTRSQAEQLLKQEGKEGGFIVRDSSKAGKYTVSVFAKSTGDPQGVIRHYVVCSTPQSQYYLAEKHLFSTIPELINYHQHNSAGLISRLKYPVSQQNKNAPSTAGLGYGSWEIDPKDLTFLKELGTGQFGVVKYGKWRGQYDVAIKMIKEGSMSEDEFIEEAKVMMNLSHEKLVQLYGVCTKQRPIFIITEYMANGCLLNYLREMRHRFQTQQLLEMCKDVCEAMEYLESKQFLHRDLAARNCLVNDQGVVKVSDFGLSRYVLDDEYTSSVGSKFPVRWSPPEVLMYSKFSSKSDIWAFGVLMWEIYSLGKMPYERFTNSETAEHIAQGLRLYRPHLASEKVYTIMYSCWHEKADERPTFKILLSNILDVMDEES

Row | Structure (SMILES) | IC50
1 | O=C(O)c1ccc(-c2cc3c(-c4cccc(N5CCOc6cc(C7CC7)ccc6C5=O)c4CO)ccnc3[nH]2)nc1 [Example P-7, 6-[4-[3-(8-cyclopropyl-5-oxo-2,3-dihydro-1,4-benzoxazepin-4-yl)-2-(hydroxymethyl)phenyl]-1H-pyrrolo[2,3-b]pyridin-2-yl]pyridine-3-carboxylic acid] | 46 nM
2 | O=C1c2ccc(C3CC3)cc2OCCN1c1cccc(-c2ccnc3[nH]c(-c4ccc(C(O)CO)cc4)cc23)c1CO (stereo not drawn) [Example P-8, 8-cyclopropyl-4-[3-[2-[4-(1,2-dihydroxyethyl)phenyl]-1H-pyrrolo[2,3-b]pyridin-4-yl]-2-(hydroxymethyl)phenyl]-2,3-dihydro-1,4-benzoxazepin-5-one] | 25 nM
3 | CS(=O)(=O)N1CC=C(c2cc3c(-c4cccc(N5CCOc6cc(C7CC7)cc(F)c6C5=O)c4CO)ccnc3[nH]2)CC1 [Example P-11, 8-cyclopropyl-6-fluoro-4-[2-(hydroxymethyl)-3-[2-(1-methylsulfonyl-3,6-dihydro-2H-pyridin-4-yl)-1H-pyrrolo[2,3-b]pyridin-4-yl]phenyl]-2,3-dihydro-1,4-benzoxazepin-5-one] | 10 nM
4 | O=C1c2c(F)cc(C3CC3)cc2OCCN1c1cccc(-c2ccnc3[nH]c(C4=CCN(C5COC5)CC4)cc23)c1CO [Example P-12, 8-cyclopropyl-6-fluoro-4-[2-(hydroxymethyl)-3-[2-[1-(oxetan-3-yl)-3,6-dihydro-2H-pyridin-4-yl]-1H-pyrrolo[2,3-b]pyridin-4-yl]phenyl]-2,3-dihydro-1,4-benzoxazepin-5-one] | 22 nM
5 | O=C(N1CC=C(c2cc3c(-c4cccc(N5CCOc6cc(C7CC7)cc(F)c6C5=O)c4CO)ccnc3[nH]2)CC1)N1CCC1 [Example P-13, 4-[3-[2-[1-(azetidine-1-carbonyl)-3,6-dihydro-2H-pyridin-4-yl]-1H-pyrrolo[2,3-b]pyridin-4-yl]-2-(hydroxymethyl)phenyl]-8-cyclopropyl-6-fluoro-2,3-dihydro-1,4-benzoxazepin-5-one] | 1 nM
6 | CS(=O)(=O)N1CC=C(c2cc3c(-c4ccnc(N5CCOc6cc(C7CC7)cc(F)c6C5=O)c4CO)ccnc3[nH]2)CC1 [Example P-25, 8-cyclopropyl-6-fluoro-4-[3-(hydroxymethyl)-4-[2-(1-methylsulfonyl-3,6-dihydro-2H-pyridin-4-yl)-1H-pyrrolo[2,3-b]pyridin-4-yl]-2-pyridyl]-2,3-dihydro-1,4-benzoxazepin-5-one] | 618 nM
7 | O=C1c2c(F)cc(C3CC3)cc2OCCN1c1cccc(-c2ccnc3[nH]c(-c4ccc(OCCN5CCOCC5)cn4)cc23)c1CO [Example Q-1, 8-cyclopropyl-6-fluoro-4-[2-(hydroxymethyl)-3-[2-[5-(2-morpholinoethoxy)-2-pyridyl]-1H-pyrrolo[2,3-b]pyridin-4-yl]phenyl]-2,3-dihydro-1,4-benzoxazepin-5-one] | 2.9 nM
8 | O=C1c2c(F)cc(C3CC3)cc2OCCN1c1cccc(-c2ccnc3[nH]c(-c4ccc(OCCN5CCC5)cn4)cc23)c1CO [Example Q-2, 4-[3-[2-[5-[2-(azetidin-1-yl)ethoxy]-2-pyridyl]-1H-pyrrolo[2,3-b]pyridin-4-yl]-2-(hydroxymethyl)phenyl]-8-cyclopropyl-6-fluoro-2,3-dihydro-1,4-benzoxazepin-5-one] | 3.1 nM
9 | CN1CCN(c2ccc(-c3cc4c(-c5cccc(N6CCOc7cc(C8CC8)ccc7C6=O)c5CO)ccnc4[nH]3)nc2)CC1 [Example S-3, 8-cyclopropyl-4-[2-(hydroxymethyl)-3-[2-[5-(4-methylpiperazin-1-yl)-2-pyridyl]-1H-pyrrolo[2,3-b]pyridin-4-yl]phenyl]-2,3-dihydro-1,4-benzoxazepin-5-one] | 3 nM
